One test relates to PAN02 pancreatic cells.
Experiment: not given
The note with it: immunocompetent mice, orally dosed; cited from earlier work.
Chain of indoleamine 2, 3-dioxygenase (IDO1) (P14902 whole entry): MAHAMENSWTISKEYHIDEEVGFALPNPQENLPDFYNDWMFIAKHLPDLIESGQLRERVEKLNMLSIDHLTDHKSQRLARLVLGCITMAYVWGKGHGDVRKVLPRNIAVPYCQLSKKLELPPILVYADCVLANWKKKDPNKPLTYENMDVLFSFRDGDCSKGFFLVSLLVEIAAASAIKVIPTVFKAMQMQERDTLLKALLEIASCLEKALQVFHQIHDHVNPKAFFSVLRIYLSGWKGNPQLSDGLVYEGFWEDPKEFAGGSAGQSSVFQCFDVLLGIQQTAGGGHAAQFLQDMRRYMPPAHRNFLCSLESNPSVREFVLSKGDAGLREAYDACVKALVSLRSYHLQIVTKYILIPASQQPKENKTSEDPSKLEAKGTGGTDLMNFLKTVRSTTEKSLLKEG
In the case of `NS(=O)(=O)NCCNc1nonc1C(=NO)Nc1ccc(F)c(Br)c1` [INCB204360], the “inhibition of tumor growth” value is “significant dose-dependent inhibition of tumor growth”.

Still in this test, the particulars now being: tumor implanted in immune-deficient mice, orally dosed; cited from earlier work.
For `NS(=O)(=O)NCCNc1nonc1C(=NO)Nc1ccc(F)c(Br)c1` [INCB204360], the “effect against the same tumor” value was “without effect”.

In a further test the test system is conversion of T cells into CD4+FoxP3+ Tregs.
Experiment: not given
The conditions noted are these: co-culture of DCs and naive CD4+CD25- T cells; cited from earlier work.
As to `NS(=O)(=O)NCCNc1nonc1C(=NO)Nc1ccc(F)c(Br)c1` [INCB204360], the “conversion of T cells into CD4+FoxP3+ Tregs” value was “blocked the conversion”.

Another test addresses indoleamine 2, 3-dioxygenase (IDO1) (Homo sapiens, UniProt P14902). Put plainly: PBMC IDO1 assay (kynurenine via mass spectrometry). The class given is cell-based.
Settings: not given
The method in brief:
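Human PBMCs (50,000/well) stimulated with IFN-γ 100 ng/ml and LPS 50 ng/ml to induce IDO1, exposed to 11-point 3-fold compound dilutions for 2 days at 37° C. Supernatant kynurenine measured by RapidFire MS relative to internal standard; XC50 from four-parameter fit. Cytotoxicity tracked in parallel by ATP luminescence.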
`O=C(NC(c1ccncc1)C1CCN(C(=O)Oc2cccnc2F)CC1)c1ccc(F)cc1` (centres unmarked) [Example 72, 2-fluoropyridin-3-yl 4-{[(4-fluorophenyl)formamido](pyridin-4-yl)methyl}piperidine-1-carboxylate] showed an IC50 of 158 nM.

As to `COc1ncccc1OC(=O)N1CCC(C(CC(C)C)NC(=O)c2ccc(Cl)cc2)CC1` (centres unmarked) [Example 10, 2-methoxypyridin-3-yl 4-{1-[(4-chlorophenyl)formamido]-3-methylbutyl}piperidine-1-carboxylate], the IC50 is 2.51 nM.

Consider `O=C(N[C@H](CCCO)C1CCN(C(=O)Oc2cccnc2F)CC1)c1ccc(F)cc1` [Example 97, 2-fluoropyridin-3-yl 4-[(1R)-1-[(4-fluorophenyl)formamido]-4-hydroxybutyl]piperidine-1-carboxylate], for which the IC50 was 1260 nM.

Compound `COc1ncccc1OC(=O)N1CCC(C(CC(C)C)NC(=O)c2ccc(F)cc2)CC1` (centres unmarked) [Example 30, 2-methoxypyridin-3-yl 4-{1-[(4-fluorophenyl)formamido]-3-methylbutyl}piperidine-1-carboxylate] gave an IC50 of 5.01 nM.

For the compound `Cc1ncccc1OC(=O)N1CCC([C@H](NC(=O)c2ccc(Cl)cc2)c2ccccc2)CC1` [Example 14, 2-methylpyridin-3-yl 4-[(S)-[(4-chlorophenyl)formamido](phenyl)methyl]piperidine-1-carboxylate], the IC50 is 2.51 nM.

In turn, `O=C(NC(c1ccncc1)C1CCN(C(=O)Oc2cccnc2)CC1)c1ccc(F)cc1` (centres unmarked) [Example 87, pyridin-3-yl 4-{[(4-fluorophenyl)formamido](pyridin-4-yl)methyl}piperidine-1-carboxylate] gave an IC50 of 631 nM.

Turning to `CC(C)CC(NC(=O)c1ccc(Cl)cc1)C1CCN(C(=O)Oc2cccnc2C#N)CC1` (centres unmarked) [Example 5, 2-cyanopyridin-3-yl 4-{1-[(4-chlorophenyl)formamido]-3-methylbutyl}piperidine-1-carboxylate], the IC50 was 1.58 nM.

The same test, now with this note: human PBMC stimulated with IFN-γ and LPS, 2 days, kynurenine by mass spectrometry; recorded as pIC50; read-out: PBMC PXC50_ (converted).
`Cc1c(F)cccc1OC(=O)N1CCC([C@H](NC(=O)c2ccc(Cl)s2)C2CC2)CC1` [Example 19, 3-fluoro-2-methylphenyl 4-[(R)-[(5-chlorothiophen-2-yl)formamido](cyclopropyl)methyl]piperidine-1-carboxylate]: the IC50 is 3.16 nM.

Take `COc1c(F)cccc1OC(=O)N1CCC([C@@H](CC(C)C)NC(=O)c2ccc(F)cc2)CC1` [Example 106, (R)-3-fluoro-2-methoxyphenyl 4-(1-(4-fluorobenzamido)-3-methylbutyl)piperidine-1-carboxylate]: the IC50 was 1.58 nM.

`N#Cc1ccc(C(=O)NC(c2ccccc2)C2CCN(C(=O)Oc3ccccc3)CC2)nc1` (centres unmarked) [Example 89, phenyl 4-{[(5-cyanopyridin-2-yl)formamido](phenyl)methyl}piperidine-1-carboxylate]: the IC50 is 631 nM.

Consider `CC(C)CC(NC(=O)c1ccc(F)cc1)C1CCN(C(=O)Oc2cccc(F)c2Cl)CC1` (centres unmarked) [Example 11, 2-chloro-3-fluorophenyl 4-{1-[(4-fluorophenyl)formamido]-3-methylbutyl}piperidine-1-carboxylate], for which the IC50 is 2.51 nM.

Take `COCCC[C@@H](NC(=O)c1ccc(F)cc1)C1CCN(C(=O)Oc2cccc(F)c2C)CC1` [Example 42, 3-fluoro-2-methylphenyl 4-[(1R)-1-[(4-fluorophenyl)formamido]-4-methoxybutyl]piperidine-1-carboxylate]: the IC50 is 7.94 nM.

Regarding `COc1nccc(OC(=O)N2CCC(C(CC(C)C)NC(=O)c3ccc(F)cc3)CC2)c1F` (centres unmarked) [Example 60, 3-fluoro-2-methoxypyridin-4-yl 4-{1-[(4-fluorophenyl)formamido]-3-methylbutyl}piperidine-1-carboxylate], the IC50 was 50.1 nM.

As to `CC(C)CC(NC(=O)c1ccccc1)C1CCN(C(=O)Oc2ccccc2)CC1` (centres unmarked) [Example 39, phenyl 4-[3-methyl-1-(phenylformamido)butyl]piperidine-1-carboxylate], the IC50 was 7.94 nM.

Turning to `O=C(NC(c1ccncc1)C1CCN(C(=O)Oc2ccccc2)CC1)c1ccccc1` (centres unmarked) [Example 77, phenyl 4-[(phenylformamido)(pyridin-4-yl)methyl]piperidine-1-carboxylate], the IC50 was 200 nM.

Turning to `CC(C)CC(NC(=O)c1ccc(F)cc1)C1CCN(C(=O)Oc2ccnc(F)c2)CC1` (centres unmarked) [Example 55, 2-fluoropyridin-4-yl 4-{1-[(4-fluorophenyl)formamido]-3-methylbutyl}piperidine-1-carboxylate], the IC50 is 20 nM.

In the case of `CC(C)CC(NC(=O)c1ccc(F)cc1)C1CCN(C(=O)Oc2ccccc2)CC1` (centres unmarked) [Example 37, phenyl 4-{1-[(4-fluorophenyl)formamido]-3-methylbutyl}piperidine-1-carboxylate], the IC50 was 7.94 nM.

Turning to `Cc1cnccc1OC(=O)N1CCC(C(CC(C)C)NC(=O)c2ccc(Cl)cc2)CC1` (centres unmarked) [Example 29, 3-methylpyridin-4-yl 4-{1-[(4-chlorophenyl)formamido]-3-methylbutyl}piperidine-1-carboxylate], the IC50 is 5.01 nM.

In the case of `CC(C)C[C@H](NC(=O)c1ccccc1)C1CCN(C(=O)Oc2ccccc2)CC1` [Example 75, phenyl 4-[(1S)-3-methyl-1-(phenylformamido)butyl]piperidine-1-carboxylate], the IC50 was 158 nM.

Turning to `Cc1ncnc(C)c1OC(=O)N1CCC([C@@H](NC(=O)c2ccc(Cl)s2)C2CC2)CC1` [Example 112, (S)-4,6-dimethylpyrimidin-5-yl 4-((5-chlorothiophene-2-carboxamido)(cyclopropyl)methyl)piperidine-1-carboxylate], the IC50 was 10 nM.

Regarding `Cc1nccc(OC(=O)N2CCC(C(CC(C)C)NC(=O)c3ccc(F)cc3)CC2)c1F` (centres unmarked) [Example 51, 3-fluoro-2-methylpyridin-4-yl 4-{1-[(4-fluorophenyl)formamido]-3-methylbutyl}piperidine-1-carboxylate], the IC50 was 12.6 nM.

For `COc1cc(OC(=O)N2CCC(C(NC(=O)c3ccc(F)cc3)C3CC3)CC2)ccn1` (centres unmarked) [Example 86, 2-methoxypyridin-4-yl 4-{cyclopropyl[(4-fluorophenyl)formamido]methyl}piperidine-1-carboxylate], the IC50 is 631 nM.

Consider `Cc1c(OC(=O)N2CCC([C@@H](C)NC(=O)c3ccc(Cl)s3)CC2)ccnc1F` [Example 101, 2-fluoro-3-methylpyridin-4-yl 4-[(1R)-1-[(5-chlorothiophen-2-yl)formamido]ethyl]piperidine-1-carboxylate], for which the IC50 was 3160 nM.

For `CC(NC(=O)c1ccc(F)cc1)C1CCN(C(=O)Oc2ccccc2)CC1` (centres unmarked) [Example 74, phenyl 4-{1-[(4-fluorophenyl)formamido]ethyl}piperidine-1-carboxylate], the IC50 is 158 nM.

In the case of `C[C@H](NC(=O)c1ccc(Cl)s1)C1CCN(C(=O)Oc2ccccc2)CC1` [Example 95, phenyl 4-[(1S)-1-[(5-chlorothiophen-2-yl)formamido]ethyl]piperidine-1-carboxylate], the IC50 was 1000 nM.

For `Cc1c(F)cccc1OC(=O)N1CCC([C@@H](C)NC(=O)c2ccc(Cl)cc2)CC1` [Example 68, 3-fluoro-2-methylphenyl 4-[(1R)-1-[(4-chlorophenyl)formamido]ethyl]piperidine-1-carboxylate], the IC50 was 126 nM.

The record behind these values is patent US10927078B2, “Modulators of indoleamine 2,3-dioxygenase” (GLAXOSMITHKLINE INTELLECTUAL PROPERTY DEVELOPMENT LIMITED, priority 2017, dated 2021).
